This note sets out measurements from patent publication US20040162235A1, “Delivery of siRNA to cells using polyampholytes” (priority 2003, published 2004).

Where two headings read alike, the source gives them in different places. *1 amine or outer side, *2 acyl side, *3 side chain or, on linkers, in order; H or OH if unused. Where a SMILES comes first, the peptide text is derived from it. Where no end group is shown, it is not given here. The star is where a group is joined. Suc = O=C(CCC(=O)[*:2])[*:1]; X1 = C/C(C(=O)O)=C(\C)C(=O)*

Data set [1] can be described thus: Red blood cell (RBC) hemolysis assay. Particulars: 37° C., read-out: Percent Hemolysis; for hemolysis at 30 min: red blood cells (washed, harvested from whole blood). The format is cell-based. As to the method: C. […] RBCs were harvested by centrifuging whole blood for 4 min. They were washed three times with 100 mM dibasic sodium phosphate at the desired pH, and resuspended in the same buffer to yield the initial volume. They were diluted 10 times in the same buffer, and 200 μL of this suspension was used for each tube. This yields […] RBCs per tube. Each tube contained 800 μL of buffer, 200 μL of the RBC suspension, and the peptide with or without polymer. Each sample was then repeated to verify reproducibility. The tubes were incubated for 30 minutes in a 37° C. water bath. They were spun for 5 min at full speed in the microcentrifuge. Lysis was determined by measuring the absorbance of the supernatant at 541 nm, reflecting the amount of hemoglobin that had been released into the supernatant. Percent hemolysis was calculated assuming 100% lysis to be measured by the hemoglobin released by the red blood cells in water; controls of RBCs in buffer with no peptide were also run.

The nature of data set [2]: Lability at pH 5: conversion of maleamic acid to amine and anhydride, followed by TNBS. The class given is physicochemical. The conditions noted are these: sodium acetate buffer pH 5. How it is done: A. DM-poly-L-lysine: Dimethyl maleamic modified poly-L-lysine (10 mg/mL) was incubated in 10 mM sodium acetate buffer pH 5. At various times, aliquots (10 μg) were removed and added to 0.5 mL of 100 mM borax solution containing 0.4 mM trinitrobenzenesulfonate (TNBS). After 30 min, the absorbance of the solution at 420 nm was measured. To determine the concentration of amines at each time point, the extinction coefficient was determined for the product of TNBS and poly-L-lysine. Using this extinction coefficient we were able to calculate the amount of amines and maleamic groups at each time point. A plot of In (At/A0) as a function of time was a straight line whose slope was the negative of the rate constant for the conversion of maleamic acid to amine and anhydride, where At is the concentration of maleamic acid at a time t and A0 is the initial concentration of maleamic acid. For two separate experiments we calculated rate constants of […] which correspond to half lives of roughly 10 and 4 minutes, respectively.
B. DM-KL3: Dimethyl maleamic modified KL3 (0.1 mg/mL) was incubated in 40 mM sodium acetate buffer pH 5 and 1 mM cetyltrimetylammonium bromide. At various times, 10 μg aliquots were removed and added to 0.05 mL 1 M borax solution containing 4 mM TNBS. After 30 min, the absorbance of the solution at 420 nm was measured. […]

Turning to `CC(C)C[C@H](NC(=O)[C@H](CC(C)C)NC(=O)[C@H](CCCCNC(=O)CCC(=O)O)NC(=O)[C@H](CC(C)C)NC(=O)[C@H](CC(C)C)NC(=O)[C@H](CC(C)C)NC(=O)[C@H](CCCCNC(=O)CCC(=O)O)NC(=O)[C@H](CC(C)C)NC(=O)[C@H](CC(C)C)NC(=O)[C@H](CCCCNC(=O)CCC(=O)O)NC(=O)[C@H](CC(C)C)NC(=O)[C@H](Cc1c[nH]c2ccccc12)NC(=O)[C@H](CC(C)C)NC(=O)[C@H](CCCCNC(=O)CCC(=O)O)NC(=O)[C@H](CC(C)C)NC(=O)[C@H](CC(C)C)NC(=O)[C@H](CC(C)C)NC(=O)[C@H](CCCCNC(=O)CCC(=O)O)NC(=O)[C@H](CC(C)C)NC(=O)[C@H](CC(C)C)NC(=O)[C@H](CCCCNC(=O)CCC(=O)O)NC(=O)CCC(=O)O)C(=O)O` [Succinyl-KL3] (Suc-K(Suc)LLK(Suc)LLLK(Suc)LWLK(Suc)LLK(Suc)LLLK(Suc)LL-OH; N-terminus and C-terminus assumed), the hemolysis came out at 2% in data set [1] (pH 5.4, 30 minutes) and 1.3% in data set [1] (pH 7.5, 30 minutes).

Take `CC[C@H](C)[C@H](NC(=O)CN)C(=O)NCC(=O)N[C@@H](C)C(=O)N[C@H](C(=O)N[C@@H](CC(C)C)C(=O)N[C@@H](CCCCN)C(=O)N[C@H](C(=O)N[C@@H](CC(C)C)C(=O)N[C@H](C(=O)N[C@H](C(=O)NCC(=O)N[C@@H](CC(C)C)C(=O)N1CCC[C@H]1C(=O)N[C@@H](C)C(=O)N[C@@H](CC(C)C)C(=O)N[C@H](C(=O)N[C@@H](CO)C(=O)N[C@@H](Cc1c[nH]c2ccccc12)C(=O)N[C@H](C(=O)N[C@@H](CCCCN)C(=O)N[C@@H](CCCNC(=N)N)C(=O)N[C@@H](CCCCN)C(=O)N[C@@H](CCCNC(=N)N)C(=O)N[C@@H](CCC(N)=O)C(=O)N[C@@H](CCC(N)=O)C(N)=O)[C@@H](C)CC)[C@@H](C)CC)[C@@H](C)O)[C@@H](C)O)C(C)C)C(C)C` [Melittin, reference compound]: the hemolysis at 30 min was 85% in data set [1] (pH 5.4, 30 minutes) and 92% in data set [1] (pH 7.5, 30 minutes).

Turning to `C/C(C(=O)O)=C(\C)C(=O)NCCCC[C@H](NC(=O)/C(C)=C(/C)C(=O)O)C(=O)N[C@@H](CC(C)C)C(=O)N[C@@H](CC(C)C)C(=O)N[C@@H](CCCCNC(=O)/C(C)=C(/C)C(=O)O)C(=O)N[C@@H](CC(C)C)C(=O)N[C@@H](CC(C)C)C(=O)N[C@@H](CC(C)C)C(=O)N[C@@H](CCCCNC(=O)/C(C)=C(/C)C(=O)O)C(=O)N[C@@H](CC(C)C)C(=O)N[C@@H](Cc1c[nH]c2ccccc12)C(=O)N[C@@H](CC(C)C)C(=O)N[C@@H](CCCCNC(=O)/C(C)=C(/C)C(=O)O)C(=O)N[C@@H](CC(C)C)C(=O)N[C@@H](CC(C)C)C(=O)N[C@@H](CCCCNC(=O)/C(C)=C(/C)C(=O)O)C(=O)N[C@@H](CC(C)C)C(=O)N[C@@H](CC(C)C)C(=O)N[C@@H](CC(C)C)C(=O)N[C@@H](CCCCNC(=O)/C(C)=C(/C)C(=O)O)C(=O)N[C@@H](CC(C)C)C(=O)N[C@@H](CC(C)C)C(=O)O` [DM-KL3] (X1-K(X1)LLK(X1)LLLK(X1)LWLK(X1)LLK(X1)LLLK(X1)LL-OH; N-terminus and C-terminus assumed), in data set [2], the half-life (in general, the time in which the quantity being followed falls by half) was approximately 8 min; the “rate constant for the conversion of maleamic acid to amine and anhydride” value amounted to 0.087 min⁻¹. For the same compound, the hemolysis in data set [1] (pH 5.4, 30 minutes) amounted to 37%. Besides, the hemolysis in data set [1] (pH 7.5, 30 minutes) is 4.3%.

For KLLKLLLKLWLKLLKLLLKLL [KL3], the hemolysis was 83% in data set [1] (pH 5.4, 30 minutes) and 62% in data set [1] (pH 7.5, 30 minutes).
